From patent US8796415B2, “Inhibitors of guanine exchange factors and their use as anticancer drugs” (Centre National de la Recherche Scientifique, priority 2009, dated 2014)
Ends that are not written are not given here.

Key:
[1] = target: T1, p63RhoGEF (Homo sapiens, UniProt Q86VW2); details: shown previously (Schmidt et al., 2002 and unpublished results); cited from earlier work
T1 construct: GST-p63RhoGEF (DH domain) and GST-RhoG were purified as described previously; GST (N); made in house

[2] = test system: Dbl mediated RhoA activation; assay: RhoA activation assay (GST-RBD pull-down) in NIH3T3 cells expressing Dbl; assay type: cell-based; details: GFP-tagged peptide
Method: FIG. 8 represents the effect of GFP-TRIPE32G on RhoA activation induced by Dbl (left panel) or Tgat (right panel) in NIH3T3 cells, assayed by GST-RBD pulldown. The levels of GTP-bound and total RhoA protein are shown in the upper two panels. Expression levels of Myc-Dbl and of all GFP-tagged proteins are shown in the lower two panels.
The level of GTP-bound RhoA was measured by a GST pulldown assay as described (Schmidt et al., 2002). Briefly, cell lysates were incubated with glutathione beads coated with the recombinant Rho-binding domain (RBD) of the RhoA specific effector Rhotekin (Cytoskeleton Inc.).

[3] = test system: Tgat-expressing NIH3T3 cells; assay: Focus formation assay of Tgat-expressing NIH3T3 cells; assay type: cell-based; details: GST-tagged peptide stably co-expressed; after 3 weeks of culture
Method: FIG. 9A represents the focus formation assay of NIH3T3 cells, stably expressing GFP or GFP-Tgat, together with GST or GST-TRIPE32G.
FIG. 9B represents the quantification of three independent focus formation assays. The number of foci formed by Tgat/GST expressing cells was set to 100%.
NIH3T3 cells were maintained as described previously (Sirvent et al., 2007). Transient transfection experiments were performed using the Jet PEI reagent, according to the manufacturer's protocol (QBiogene Inc.). NIH3T3 cell lines stably expressing GFP-Tgat, GFP-TgatL190E, or GFP-Trio, with or without the GST-TRIP peptides, were generated as follows: the indicated retroviral constructs were transfected into BOSC packaging cells, using the Lipofectamine reagent (Invitrogen Inc.). Forty-eight hours after transfection, virus containing supernatants were collected and used to infect NIH3T3 cells. Infected cells were selected with 6 μg/mL puromycin and/or 1 mg/mL G418 and stable transfectants were pooled after selection. Tgat or TRIP mRNA levels in the different cell lines were monitored by RTPCR, and protein expression levels by Western blot analysis using a polyclonal anti-GFP antibody (Toney Pines Laboratories). […] After staining with Crystal Violet (1%), plates were photographed and foci were scored using the Metamorph software. […]

T1 sequence (Q86VW2 160-336 limits assumed): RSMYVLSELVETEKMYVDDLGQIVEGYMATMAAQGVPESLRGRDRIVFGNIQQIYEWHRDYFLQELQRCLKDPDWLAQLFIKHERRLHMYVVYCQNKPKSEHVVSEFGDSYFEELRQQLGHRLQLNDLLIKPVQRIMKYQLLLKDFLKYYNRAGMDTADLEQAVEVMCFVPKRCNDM

Substance | activity on p63RhoGEF [1] | inhibition of oncogenic Dbl mediated RhoA activation in intact cells [2] | foci in Tgat expressing cells [3]
AREGADGAICGYNLATLVMLGPSERVFCPLCEPCSSDIYELM [TRIPα] | not active | – | –
GST-TRIPE32G (AREGADGAICGYNLATLVMLGPSERVFCPLCGPCSSDIYELM; cysteine pairing not given here; also: GST fusion) | – | not able to inhibit RhoA activation by Dbl | severely reduced
